Some test systems named below: Enterococcus faecium; Candida albicans; Escherichia coli U7103; Escherichia coli U7794; Escherichia coli; Staphylococcus aureus.
Holding throughout (assay): ≥ marks a high value that may be exact or a test limit, other limits are often not marked, values filed in µg/mL are converted to µM
For experiment [1], the system named is Acinetobacter baumannii 4-MRGN.
In experiment [2] the test system is Pseudomonas aeruginosa ATCC 27853.
Experiment [3] relates to Staphylococcus aureus USA 300.
Experiment [4] relates to Candida albicans ATCC 90028.
For experiment [5], the system named is Enterobacter cloacae NHTCC 53001.
The subject of experiment [6] is Enterococcus faecalis ATCC 29212.
Experiment [7] relates to Escherichia coli 0112 EIEC26.
Experiment [8] relates to Escherichia coli 0112 EIEC27.
The subject of experiment [9] is Escherichia coli 0143 EIEC7.
The test system of experiment [10] is Escherichia coli 0152 EIEC1.
Experiment [11] concerns Escherichia coli 0164 EIEC6.
In experiment [12] the test system is Escherichia coli ATCC 25922.
The subject of experiment [13] is Escherichia coli ATCC 35218.
Experiment [14] deals with Escherichia coli AX-054-1-3.
Experiment [15] deals with Escherichia coli AX-100-3-1.
Experiment [16] deals with Escherichia coli AX-109-2-3.
The test system of experiment [17] is Escherichia coli AX-128-3-3.
The subject of experiment [18] is Escherichia coli O157:H7 282.
Experiment [19] concerns Escherichia coli O157:H7 30328.
The subject of experiment [20] is Escherichia coli O157:H7 734/94.
Experiment [21] relates to Escherichia coli O157:H7 CB6392.
The test system of experiment [22] is Escherichia coli O26:H- CB6418.
The test system of experiment [23] is Escherichia coli O26:H11 3.
The subject of experiment [24] is Escherichia coli O6:K15:H31 536.
Experiment [25] relates to Klebsiella pneumoniae KK3 9904.
The test system of experiment [26] is Proteus mirabilis ATCC 25933.
Experiment [27] has as its system Staphylococcus aureus NCTC 8325.
In experiment [28] the test system is Staphylococcus epidermidis RP62A.
In experiment [29] the test system is Acinetobacter baumannii MTCC 9829.
The test system of experiment [30] is Alcaligenes faecalis MTCC 1937.
The test system of experiment [31] is Alkalihalobacillus alcalophilus MTCC 860.
Experiment [32] concerns Bordetella bronchiseptica MTCC 6837.
Experiment [33] concerns Citrobacter freundii MTCC 1658.
For experiment [34], the system named is Citrobacter koseri MTCC 1657.
The test system of experiment [35] is Corynebacterium glutamicum MTCC 2679.
Experiment [36] relates to Enterococcus faecalis MTCC 439.
Experiment [37] deals with Escherichia coli K12 MG1655.
Experiment [38] concerns Haemophilus influenzae MTCC 621.
Experiment [39] deals with Klebsiella aerogenes MTCC 111.
The test system of experiment [40] is Klebsiella oxytoca MTCC 2275.
Experiment [41] has as its system Klebsiella pneumoniae MTCC 7407.
In experiment [42] the test system is Pluralibacter gergoviae MTCC 3826.
The subject of experiment [43] is Proteus mirabilis MTCC 3158.
Experiment [44] deals with Proteus vulgaris MTCC 1771.
Experiment [45] relates to Pseudomonas aeruginosa MTCC 3542.
Experiment [46] concerns Salmonella enterica MTCC 9844.
The subject of experiment [47] is Salmonella enterica subsp. enterica serovar Typhimurium ATCC 14028.
In experiment [48] the test system is Shigella boydii MTCC 11947.
The subject of experiment [49] is Shigella flexneri MTCC 1457.
In experiment [50] the test system is Staphylococcus aureus MTCC 3160.
Experiment [51] concerns Staphylococcus haemolyticus MTCC 3383.
Experiment [52] relates to Stenotrophomonas maltophilia MTCC 1890.
Experiment [53] relates to Vibrio cholerae MTCC 3904.

Drawing on DBAASP, this text covers MIC for three compounds.

Converted amounts (≈) assume the structure as drawn. Where only a bound is given, the exact number is not on record here.

As for `C[C@H](N)C(=O)N[C@H](C(=O)N[C@H]1CSSC[C@@H](C(=O)N[C@@H](CCCN=C(N)N)C(=O)N[C@H](C(=O)NCC(=O)N[C@@H](CCCN=C(N)N)C(=O)O)[C@@H](C)O)NC(=O)[C@H](Cc2ccc(O)cc2)NC1=O)[C@@H](C)O` [ATCYCRTGR], the MIC in experiment [1] is 25 µM (≈ 25.7 µg/mL); in the experiment on Enterococcus faecium, 25 µM (≈ 25.7 µg/mL); in [2], 50 µM (≈ 51.4 µg/mL); in experiment [3], at least 50 µM.
Regarding `CC[C@@H](C)[C@H](N=C(O)[C@H](CCCCN)N=C(O)C(CS)N=C(O)C(C)N=C(O)[C@H](N=C(O)[C@@H](Cc1ccccc1)N=C(O)CN=C(O)[C@H](CC(C)C)N=C(O)CN=C(O)[C@H](N=C(O)[C@H](CCCCN)N=C(O)CN=C(O)[C@H](CC(C)C)N=C(O)[C@H](CC(=N)O)N=C(O)[C@H](CCCCN)N=C(O)[C@H](CC(C)C)N=C(O)[C@H](N=C(O)[C@H](CO)N=C(O)C(CC(C)C)N=C(O)[C@H](CCSC)N=C(O)[C@H](N)CO)C(C)C)C(C)C)C(C)C)C(O)=N[C@H](CC(=N)O)C(O)=N[C@H](CCCCN)C(O)=N[C@H](CCC(=N)O)C(O)=N[C@H](CS)C(=O)O` (stereo not given in full) [SMLSVLKNLGKVGLGFVACKINKQC], the MIC in experiment [4] was at least 40 µM; against Candida albicans, 70 µM (≈ 186 µg/mL); in experiment [5], 20 µM (≈ 53 µg/mL); in experiment [6], 20 µM (≈ 53 µg/mL); in [7], at least 40 µM; in experiment [8] it was 20 µM (≈ 53 µg/mL). For the same compound, the MIC in experiment [9], in [10], in experiment [11], in experiment [12], in [13] and in [14] was 20 µM (≈ 53 µg/mL) in each case. The MIC in experiment [15] turned out to be 20 µM (≈ 53 µg/mL); in experiment [16] it was 10 µM (≈ 26.5 µg/mL); in experiment [17], 10 µM (≈ 26.5 µg/mL); in experiment [18] it was 5 µM (≈ 13.3 µg/mL); in experiment [19], 10 µM (≈ 26.5 µg/mL); in [20], 10 µM (≈ 26.5 µg/mL). The MIC was 10 µM (≈ 26.5 µg/mL) in experiment [21]; 10 µM (≈ 26.5 µg/mL) in experiment [22]; 5 µM (≈ 13.3 µg/mL) in experiment [23]; 5 µM (≈ 13.3 µg/mL) in [24]; 5 µM (≈ 13.3 µg/mL) against Escherichia coli U7103; 10 µM (≈ 26.5 µg/mL) in the experiment with Escherichia coli U7794. For the same compound, the MIC with Escherichia coli is 2 µM (≈ 5.3 µg/mL); in experiment [25] it was at least 40 µM; in [26], at least 100 µM; in experiment [2], 20 µM (≈ 53 µg/mL); in experiment [27], 20 µM (≈ 53 µg/mL); in the experiment with Staphylococcus aureus it was 50 µM (≈ 133 µg/mL). The compound also had an MIC in experiment [28] of 20 µM (≈ 53 µg/mL).
`CC[C@H](C)[C@H](NC(=O)[C@H](C)NC(=O)[C@H](CCCN=C(N)N)NC(=O)[C@H](C)NC(=O)[C@H](CC(C)C)NC(=O)[C@@H](N)Cc1ccc(O)cc1)C(=O)N[C@@H](CCCN=C(N)N)C(=O)N[C@@H](CCCN=C(N)N)C(=O)N[C@H](C(=O)N[C@@H](CC(C)C)C(=O)N[C@@H](C)C(=O)N[C@@H](CCCN=C(N)N)C(=O)N[C@@H](CC(C)C)C(=O)N[C@@H](CC(C)C)C(=O)N[C@@H](CC(C)C)C(=O)O)[C@@H](C)O` [YLARAIRRTLARLLL]: the MIC in experiment [29] amounted to 8.89 µM (≈ 16 µg/mL); in [30], 17.8 µM (≈ 32 µg/mL); in [31], 8.89 µM (≈ 16 µg/mL); in experiment [32], 2.22 µM (≈ 4 µg/mL); in experiment [33], 8.89 µM (≈ 16 µg/mL); in experiment [34], 8.89 µM (≈ 16 µg/mL). The MIC in experiment [35] was 2.22 µM (≈ 4 µg/mL); in experiment [36], at least 35.6 µM; in experiment [37], 17.8 µM (≈ 32 µg/mL); in [38], 4.45 µM (≈ 8 µg/mL); in experiment [39], 17.8 µM (≈ 32 µg/mL); in experiment [40], 8.89 µM (≈ 16 µg/mL). For the same compound, the MIC is 17.8 µM (≈ 32 µg/mL) in experiment [41]; at least 71.1 µM in [42]; at least 71.1 µM in experiment [43]; at least 71.1 µM in experiment [44]; at least 71.1 µM in experiment [45]; 8.89 µM (≈ 16 µg/mL) in experiment [46]. For the same compound, the MIC in experiment [47] worked out at 17.8 µM (≈ 32 µg/mL); in experiment [48], 17.8 µM (≈ 32 µg/mL); in experiment [49], 4.45 µM (≈ 8 µg/mL); in experiment [50], 8.89 µM (≈ 16 µg/mL); in experiment [51], 8.89 µM (≈ 16 µg/mL); in experiment [52] it was 8.89 µM (≈ 16 µg/mL). The MIC in experiment [53] is at least 35.6 µM.
